Experimental data reported in the supplement of paper PMC5579334.

Columns and labels:
HS-Sch-2 [1] = assay: % inhibition of CellTiter-Glo viability at highest tested concentration (72 h), relative to DMSO and benzethonium chloride controls; higher = more inhibition
Procedure, shortened: (§1)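 Viability was scored by CellTiter-Glo ATP luminescence, scaled from vehicle to positive-control wells, with duplicates averaged where present. The cells, MPNST lines and primary human Schwann cells at 750–1000 per well, sat 72 h at 37 °C, 5% CO2, in 384-well plates preprinted with each compound at five concentrations in 10-fold steps. Four-parameter logistic fits were run on the data. These fits give drug sensitivity score and relative IC50 censored at the top concentration, and percent inhibition is reported at the top concentration.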

YST-1 [2] = assay: as above
Procedure, shortened: as §1

HS-PSS [3] = assay: as above
Procedure, shortened: as §1

HS-PSS [4] = assay: drug sensitivity score (DSS, CellTox-Green cytotoxicity, 72 h) (DSS (dimensionless)); higher = more cytotoxic; extreme values may be limits of the assay
Procedure, shortened: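 MPNST cell lines and primary human Schwann cells were incubated 72 h at 37 °C in 384-well plates holding five 10-fold compound dilutions. CellTox-Green was added before seeding at a final 1:1000 dilution and reported fluorescence from DNA released by disrupted cells. Signals were scaled to vehicle and positive-control wells, and cultures failing plate quality control were dropped. Drug sensitivity score and relative IC50 come from four-parameter logistic fits, with IC50 censored at the top concentration.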

HS-Sch-2 [5] = assay: drug sensitivity score (DSS, CellTiter-Glo viability, 72 h) (DSS (dimensionless)); higher = more sensitive; extreme values may be limits of the assay
Procedure, shortened: as §1

YST-1 [6] = assay: as above
Procedure, shortened: as §1

HS-PSS [7] = assay: as above
Procedure, shortened: as §1

| SMILES | % inhibition (HS-Sch-2 [1]) [%] | % inhibition (YST-1 [2]) [%] | % inhibition (HS-PSS [3]) [%] | drug sensitivity score (HS-PSS [4]) | drug sensitivity score (HS-Sch-2 [5]) | drug sensitivity score (YST-1 [6]) | drug sensitivity score (HS-PSS [7]) |
| --- | --- | --- | --- | --- | --- | --- | --- |
| CN1CCN(C2CCN(C(=O)Nc3cc(Oc4ccc(NC(=O)C5(C(=O)Nc6ccc(F)cc6)CC5)c(F)c4)ccn3)CC2)CC1 [Golvatinib] (max concentration tested 2500 nM) | 19.2 | 17.2 | 23.6 | 0 | 0.68 | 1.35 | 0.68 |
| CNC(=O)c1ccc(-c2cnc3ncc(Cc4ccc5ncccc5c4)n3n2)cc1F [NVP-INC280] (max concentration tested 1000 nM) | 6.7 | 12.3 | 7.48 | 0 | 1.29 | 0.19 | 0 |
| Cc1ncc(Cl)cc1NCc1ccc(C(=O)N[C@@H](CC2CCCC2)C(=O)NC2CC2)s1 (max concentration tested 5000 nM) | 12.8 | 45.9 | 10.8 | 0 | 0.17 | 8.01 | 0 |
| N#CC(c1ccnc(OCc2ccc(CN3CCOCC3)cc2)n1)c1nc2ccccc2s1 (configuration not stated) [Bentamapimod] (max concentration tested 10000 nM) | 58.6 | 26.9 | 75.6 | 1.1 | 3.69 | 2.11 | 6.75 |
| Cn1ncnc1[C@H]1c2n[nH]c(=O)c3cc(F)cc(c23)N[C@@H]1c1ccc(F)cc1 [Talazoparib] (max concentration tested 1000 nM) | 25.4 | 61.3 | 21.9 | 0 | 1.84 | 15.5 | 3.37 |
| CNC(=O)c1cc(COc2nnc(Nc3ccc(Cl)cc3)c3ccoc23)ccn1 [Telatinib] (max concentration tested 10000 nM) | 8.79 | 6.98 | 5.71 | 0 | 0 | 0.77 | 0 |
| COc1ccc(CCc2nc3cc(-c4c(C)noc4C)ccc3n2C[C@H](C)N2CCOCC2)cc1Cl [SGC-CBP30] (max concentration tested 25000 nM) | 60.7 | 62 | 40.4 | 0 | 5.7 | 5.72 | 1.59 |
| O=C(NOCC1CC1)c1ccc(F)c(F)c1Nc1ccc(I)cc1Cl (max concentration tested 10000 nM) | 55.9 | 24.6 | 21.5 | 0 | 5.05 | 1.6 | 0.51 |
| CC(C)N(C[C@H]1O[C@@H](n2cnc3c(N)ncnc32)[C@H](O)[C@@H]1O)[C@H]1C[C@@H](CCc2nc3cc(C(C)(C)C)ccc3[nH]2)C1 [Pinometostat] (max concentration tested 1000 nM) | -7.39 | -2.52 | 5.45 | 0 | 0 | 0 | 0 |
| CCNC(=O)C[C@@H]1N=C(c2ccc(Cl)cc2)c2cc(OC)ccc2-n2c(C)nnc21 (max concentration tested 10000 nM) | 63.1 | 65.3 | 58.4 | 0 | 8.49 | 10.2 | 7.28 |
| Cc1cnc(Nc2ccc(OCCN3CCCC3)cc2)nc1Nc1cccc(S(=O)(=O)NC(C)(C)C)c1 [Fedratinib] (max concentration tested 10000 nM) | 102 | 87.1 | 96.5 | 3.87 | 10.8 | 8.29 | 9.41 |
| Cc1cc(C(=O)NOCCO)c(Nc2ccc(I)cc2F)n(C)c1=O [AZD-8330] (max concentration tested 10000 nM) | 53.5 | 3.34 | 51.1 | 0 | 11.6 | 0 | 8.85 |
| Cc1cc(Nc2cc(N3CCN(C)CC3)nc(Sc3ccc(NC(=O)C4CC4)cc3)n2)n[nH]1 [Tozasertib] (max concentration tested 10000 nM) | 61.5 | 45.5 | 31.3 | 0 | 8.18 | 12.9 | 4.85 |
| CC[C@H](C)C(=O)O[C@H]1C[C@@H](C)C=C2C=C[C@H](C)[C@H](CC[C@@H]3C[C@@H](O)CC(=O)O3)[C@H]21 [Lovastatin] (max concentration tested 10000 nM) | -6.45 | 0.71 | -5.9 | 0 | 0 | 0 | 0 |
| CCn1c(-c2nonc2N)nc2c(C#CC(C)(C)O)ncc(OC[C@H]3CCCNC3)c21 (max concentration tested 10000 nM) | 39 | -24.9 | 3.9 | 0 | 3.35 | 0 | 0 |
| CON(C)C(=O)N1N=C(c2cc(F)ccc2F)S[C@@]1(CCCN)c1ccccc1 [Filanesib] (max concentration tested 1000 nM) | 88.7 | 78.3 | 29 | 0 | 29.1 | 25.7 | 7.81 |
